Laboratory results from patent US5770407A, “Process for preparing nucleotide inhibitors of glycosyltransferases” (The Scripps Research Institute, priority 1996, dated 1998).
Entries after “also recorded” stand apart in the source; their conditions may differ. Where two headings read alike, the source gives them in different places. One block for each molecule: values may come before it.

What was measured:
[1] = system: β 1,4-galactosyltransferase; assay: Inhibition study of β-1,4-galactosyltransferase (UDP-[3H]Gal transfer to N-acetylglucosamine); assay type: biochemical, bovine milk; conditions: for mode of inhibition of β-1,4-galactosyltransferase: HEPES 100 mM, pH 7.4
Method: All assays contained 10 mM of MnCl2, 2 mM of UDP-[^3 H]Gal, 5 μL of 0.125 mg/mL galactosyltransferase, 0.5-4 mM of N-acetylglucosamine, 0-0.05 mM of 1, and 100 mM of HEPES buffer (pH 7.4) in a total assay volume of 0.05 mL. Assay was performed at 25° C. Reactions were halted with the addition of 0.3 mL of distilled, de-ionized water after 10 min. The reaction mixtures were passed through a pipette column (2 cm) of Sepadex QAE A-25 with 1 mL of distilled, de-ionized water. The obtained fractions were collected in 10 mL of ScintiVerse I scintillation cocktail. A control reaction without enzyme was used to establish the background, non-enzymatic cleavage rate. A typical control reaction of 41754 cpm UDP-[^3 H]Gal would result in 890 cpm of non-enzymatic column flow through.

[2] = system: β 1,4-galactosyltransferase; conditions: previous observation, Wong 1992; Srivastava 1993; cited from earlier work
[3] = system: β 1,4-galactosyltransferase; conditions: literature: Morrison, Ebner J. Biol. Chem. 1971; read-out: Km of GlcNAc (lit); cited from earlier work
FucT V = target: T1, FucT V (Homo sapiens, UniProt Q11128); assay: Pre-incubation of GDP-2F-Fuc with FucT V (slow substrate / inactivator test); assay type: biochemical
T1 sequence (Q11128 1-374): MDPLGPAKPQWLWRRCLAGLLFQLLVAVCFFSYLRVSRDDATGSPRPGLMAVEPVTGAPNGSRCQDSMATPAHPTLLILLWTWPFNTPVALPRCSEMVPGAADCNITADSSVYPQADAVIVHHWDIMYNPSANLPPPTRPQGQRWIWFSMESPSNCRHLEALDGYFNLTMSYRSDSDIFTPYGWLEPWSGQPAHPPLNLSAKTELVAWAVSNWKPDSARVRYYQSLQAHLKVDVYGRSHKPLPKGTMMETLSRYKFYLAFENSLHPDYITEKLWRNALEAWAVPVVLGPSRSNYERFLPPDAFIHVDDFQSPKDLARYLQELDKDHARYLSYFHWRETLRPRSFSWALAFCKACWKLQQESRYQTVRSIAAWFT
Method: (§1) The interaction of GDP-2F-Fuc with FucT V was evaluated. The mode of inhibition of FucT V by GDP-2F-Fuc was evaluated by varying the GDP-Fuc concentrations at fixed GDP-2F-Fuc concentrations at a constant LacNAc-b-O--(CH2)5 CO2 CH3 concentration. […] Pre incubation of 0.010 mM GDP-2F-Fuc with the FucT V in the presence of LacNAc-b-O--(CH2)5 CO2 CH3 and MnCl2 was performed for 0-80 minutes. The reactions were initiated with GDP-Fuc and allowed to react for 30 minutes. The percent inhibition remained constant at 58% which is expected for reversible inhibition. If GDP-2F-Fuc was either an inactivator of a slow substrate, then the inhibition would either increase or decrease as a function of time.
A 0.350 mL solution that contained 10 mM MnCl2 , 2.1 munits FucT V, 0.30 mM LacNAc-b-O--(CH2)5 CO2 CH3, 0.010 mM GDP-2F-Fuc, and 100 mM MES (pH 6.0). This solution was subject to incubation at room temperature for various time periods (0, 3, 10, 20, 30, 60, 80 min). After the incubation time, a 0.050 mL aliquot was removed and GDP-[U-^14 C]-fucose was added to a final concentration of 0.050 mM to initiate the fucosyltransfer reaction. After a 30 minute reaction time period, the solution was passed through a Dowex 1 column and the amount of product determined.

[4] = target: T2, α-1,3-fucosyltransferase V (Homo sapiens, UniProt Q11128); assay: Inhibition of α-1,3-fucosyltransferase V (FucT V), GDP-Fuc varied at fixed inhibitor concentrations; assay type: biochemical; conditions: for mode of inhibition of FucT V: GDP-Fuc varied, constant LacNAc acceptor, listed as GDP-2F-Fuc
T2 construct: made in house
T2 sequence (Q11128 1-374): T1 sequence (Q11128 1-374)
Method: GDP-Fuc concentration was varied ([…]) and the acceptor sugar, LacNAc-b-O--(CH2)5 CO2 CH3, was kept at twice its km level, 0.6 mM. (Inset) A replot of the slopes as a function of GDP-2F-Fuc concentration is presented as a graphical Ki determination (Ki =x axis intercept).
as §1
Anhydrous pyridine was purchased from Aldrich and used without further purification. N-Acetyllactosamine, Dowex 1-X8, MES, pyruvate kinase, lactate dehydrogenase, PEP, GDP, NADH, guanosine 5'-monophospho-morpholidate 4-morpholine-N,N'-dicyclohexylcarboxamidine salt, GDP-Fuc, and cacodylic acid were purchased from Sigma. Guanosine 5'-diphospho-[U-^14 C]-b-L-fucose was purchased from Amersham Life Science. ScintiVerseI scintillation cocktail and MnCl2.4 H2 O were purchased from Fisher Scientific Company. Protein concentrations were determined with the Coomassie protein staining reagent with albumin standards as purchased from Pierce. The scintillation counter used was the Beckman LS 3801. Fluorescence was measured on a Hitachi F2000 Fluorescence Spectrophotometer. Human a-1,3-fucosyltransferase and LacNAc-b-O--(CH2)5 CO2 CH3 were prepared according to published procedures (Murray et al.(1996) Biochemistry 35, 11183-11195.).
GDP-Fuc concentration was varied ([…]) at fixed concentrations of GDP-2F-Fuc ([…]), and the acceptor sugar, LacNAc-b-O-(CH2)5 CO2 CH3, was kept at twice its Km level, 0.6 mM. Each assay contained 0.3 munit of FucT V and 10 mM MnCl2 in a 100 mM MES buffer (pH 6.0). Reactions were 30 minutes at room temperature.

mode of inhibition of β-1,4-galactosyltransferase [1]: competitive inhibitor
mode of inhibition of β-1,4-galactosyltransferase ([1]; listed as UDP-2F-Gal, 1): potent competitive inhibitor
mode of inhibition of β-1,4-galactosyltransferase ([1]; listed as UDP-2FGal): competitive inhibitor
mode of inhibition of β-1,4-galactosyltransferase ([1]; listed as UDP-2FGal 1): competitive inhibition
Ki ([1]; competitive inhibition, UDP-Gal, GlcNAc, Mn2+ 10 mM, HEPES 100 mM pH 7.4, 25° C.): 41 µM
Structure (SMILES): O=c1ccn([C@@H]2O[C@H](COP(=O)(O)OP(=O)(O)O[C@H]3O[C@H](CO)[C@H](O)[C@H](O)[C@H]3F)[C@@H](O)[C@H]2O)c(=O)[nH]1 [Compound 1, Uridine 5'-diphospho-2-deoxy-2-fluoro-α-D-galactose]

Structure (SMILES): O=c1ccn([C@@H]2O[C@H](COP(=O)(O)OP(=O)(O)O[C@@H]3C[C@@H](O)[C@@H](O)[C@@H](CO)O3)[C@@H](O)[C@H]2O)c(=O)[nH]1 [2-deoxy derivative]
substrate quality for the transferase [2]: good substrate

Vmax ([1]; acceptor GlcNAc, HEPES pH 7.4): 0.14 ± 0.01 µmol/min
Km ([1]; β 1,4-galactosyltransferase, HEPES pH 7.4, read-out: Km of GlcNAc): 5.3 ± 0.5 mM
Structure (SMILES): CC(=O)N[C@H]1C(O)O[C@H](CO)[C@@H](O)[C@@H]1O (stereo partly shown) [GlcNAc, N-acetylglucosamine, reference compound]
Km [3]: 6 mM

percent inhibition after pre-incubation (FucT V; 0.010 mM GDP-2F-Fuc, pre-incubation 0-80 minutes, 30 minutes reaction, remained constant): 58%
effect of pre-incubation on the potency of inhibition (FucT V; incubation with FucT V and acceptor prior to GDP-Fuc): no effect
mode of inhibition of FucT V [4]; 21: potent competitive inhibitor
Ki ([4]; α-1,3-fucosyltransferase V, summary and description): 4.2 µM
Structure (SMILES): C[C@@H]1O[C@H](OP(=O)(O)OP(=O)(O)OC[C@H]2O[C@@H](n3cnc4c(=O)[nH]c(N)nc43)[C@H](O)[C@@H]2O)[C@@H](F)[C@H](O)[C@@H]1O [Compound 21, Guanosine 5'-diphospho-2-deoxy-2-fluoro-β-L-fucose]
slow substrate or inactivator behaviour (FucT V; pre-incubation with FucT V, acceptor and MnCl2 before GDP-Fuc, listed as GDP-2F-Fuc): not a slow substrate or an inactivator; also recorded: neither an inactivator nor a slow substrate
mode of inhibition of FucT V [4]: potent competitive inhibitor; also recorded: competitive inhibition pattern
relative potency as FucT V inhibitor ([4]; compared with inhibitors known to date): most potent inhibitor of this enzyme to date
